In patent US20240174718A1, “RYANODINE RECEPTOR INHIBITOR COMPOUNDS AND METHODS RELATING THERETO” (Vanderbilt University, priority 2022, published 2024):

Assays:
[1] = molecular target: T1, RyR2 (Mus musculus, UniProt E9Q401); test: Calcium spark frequency in permeabilized Casq2 knockout cardiomyocytes (screen for RyR2 activity); format: cell-based
T1 construct: spontaneous openings of intracellular RyR2 Ca^2+ release channels; endogenous in cells; host or cells: ventricular cardiomyocytes isolated from Casq2-/- mice (saponin-permeabilized in A1, intact in A7)
Protocol: FIGS. 3(A)-3(E) show a biological screen for cardiac ryanodine receptor (RyR2) activity. Note that ‘ent-24’=9, and ‘ent-18’ refers to structure 8 in FIG. 1, which is also the enantiomer of a natural product. (3A) Calcium spark frequency in permeabilized murine cardiomyocytes was recorded as an index of RyR2 activity. Compounds were screened at 25 uM concentration after 10-minute incubation. *=p<0.001 by one-way ANOVA with Tukey's post-hoc test. (3B) Incubation time was extended to 60 minutes for the 12- and 30-membered rings. (3C) The seco-acid precursors to 12- and 18-membered rings were tested at 25 uM. (3D) Concentration response curve for the 18-membered ring and (3E) 24-membered ring. Cells were incubated for 30 minutes
Activity of Ring-Size Analogues. […] Ventricular cardiomyocytes were isolated, permeabilized with saponin, and incubated with vehicle (DMSO) or 25 μM of selected compound. RyR2 activity was measured in the form of calcium sparks, which are elementary Ca^2+ release events generated by spontaneous openings of intracellular RyR2 Ca^2+ release channels. Importantly, saponin selectively permeabilizes the sarcolemmal membrane, leaving the SR membrane intact and ensuring equivalent access of the compounds to the SR membrane where RyR2 resides.
The compounds were first screened by incubating cardiomyocytes for 10 minutes at 25 μM concentration and compared to vehicle (DMSO) conditions.

[2] = test system: Casq2-/- mice; test: Catecholamine-induced arrhythmia challenge (ECG) in CPVT mice; format: in vivo, mouse
Protocol: Triple crossover study design for in vivo arrhythmia challenge. N=22 Casq2^−/− mice were randomly assigned to vehicle (DMSO), 3 mg/kg, or 30 mg/kg ent-B1 and crossed over twice with one-week washouts between treatment. Mice underwent catecholamine-induced arrhythmia challenge with isoproterenol 15 min after intraperitoneal drug administration. […] Ectopic beats are denoted by p (PVC), c (couplet), and vt (ventricular tachycardia). Normal sinus beats are not marked. […] Individual data are shown with median and interquartile range. Bonferroni-adjusted P values by pairwise Wilcoxon matched-pairs signed rank test. *P=0.020 vs Veh; #P=0.039 vs Veh. […] Bonferroni-adjusted P values by pairwise Wilcoxon matched- pairs signed rank test. #P=0.0058 vs Vehicle.
ECG recording—Nine male and thirteen female Casq2^−/− mice 17-20 weeks old were randomly assigned to a three-by-three crossover design such that every treatment sequence was sampled. Mice were pretreated with intraperitoneal injection of vehicle (DMSO), 3 mg/kg ent-B1, or 30 mg/kg of ent-B1 fifteen minutes prior to baseline ECG recording. Mice were then injected with 3 mg/kg isoproterenol intraperitoneally. Recordings were continued for 5 minutes or for 1 minute after cessation of ventricular ectopy. A washout period of one week was used between treatments. The Vanderbilt Institutional Animal Care and Use Committee (IACUC) approved the use of mice in these studies (protocol #M1900057-01). Animals had free access to food and water.
ECG analysis—LabChart (AD Instruments, Inc) was used to analyze ECG recordings by a reviewer blinded to treatment dose. ECG records were examined to quantify premature ventricular contractions (PVCs), duration of ventricular tachycardia, heart rate, and baseline ECG parameters (PR, QRS and QT interval). Arrhythmias were scored on a five point ordinal scale based on the number of PVCs with the following criteria: 1) zero point for no PVCs; 2) one point for isolated PVCs; 3) two points for bigeminy (alternating sinus beats and PVCs); 4) three points for couplets (two consecutive PVCs); and 5) four points for three or more consecutive PVCs (ventricular tachycardia).
All tests were two-sided and a p-value cutoff of <0.05 was used to denote significance. Concentration-response curves for RyR2 single-channel, [^3H]ryanodine ligand binding and intact myocyte assays were generated using non-linear regression with the equation: Y=Bottom+(Top−Bottom)/(1+(IC50/X)^HillSlope) using least square regression, no weighting, and no constrains on the parameters. The distributions of relative RyR2 open probability at each [ent-B1] were normalized by taking the log of each sample. For the 3×3 crossover in vivo ECG study, a pre-test was conducted using a mixed model with fixed effects of sequence and period; mice were treated as random effects.
Casq2^−/− mice are a validated model for preclinical testing of antiarrhythmic drugs for CPVT. […] The same doses of ent-B1 were tested in a triple-crossover design with each mouse receiving vehicle (DMSO), 3 mg/kg, and 30 mg/kg with a one-week washout period between experiments. […] ECGs were analyzed in blinded fashion and ventricular arrhythmias quantified. […] We also scored the mice based on the ventricular arrhythmia severity, i.e., premature ventricular complexes (PVCs)<bigeminy<couplets<ventricular tachycardia. […]

T1 sequence (E9Q401 whole entry): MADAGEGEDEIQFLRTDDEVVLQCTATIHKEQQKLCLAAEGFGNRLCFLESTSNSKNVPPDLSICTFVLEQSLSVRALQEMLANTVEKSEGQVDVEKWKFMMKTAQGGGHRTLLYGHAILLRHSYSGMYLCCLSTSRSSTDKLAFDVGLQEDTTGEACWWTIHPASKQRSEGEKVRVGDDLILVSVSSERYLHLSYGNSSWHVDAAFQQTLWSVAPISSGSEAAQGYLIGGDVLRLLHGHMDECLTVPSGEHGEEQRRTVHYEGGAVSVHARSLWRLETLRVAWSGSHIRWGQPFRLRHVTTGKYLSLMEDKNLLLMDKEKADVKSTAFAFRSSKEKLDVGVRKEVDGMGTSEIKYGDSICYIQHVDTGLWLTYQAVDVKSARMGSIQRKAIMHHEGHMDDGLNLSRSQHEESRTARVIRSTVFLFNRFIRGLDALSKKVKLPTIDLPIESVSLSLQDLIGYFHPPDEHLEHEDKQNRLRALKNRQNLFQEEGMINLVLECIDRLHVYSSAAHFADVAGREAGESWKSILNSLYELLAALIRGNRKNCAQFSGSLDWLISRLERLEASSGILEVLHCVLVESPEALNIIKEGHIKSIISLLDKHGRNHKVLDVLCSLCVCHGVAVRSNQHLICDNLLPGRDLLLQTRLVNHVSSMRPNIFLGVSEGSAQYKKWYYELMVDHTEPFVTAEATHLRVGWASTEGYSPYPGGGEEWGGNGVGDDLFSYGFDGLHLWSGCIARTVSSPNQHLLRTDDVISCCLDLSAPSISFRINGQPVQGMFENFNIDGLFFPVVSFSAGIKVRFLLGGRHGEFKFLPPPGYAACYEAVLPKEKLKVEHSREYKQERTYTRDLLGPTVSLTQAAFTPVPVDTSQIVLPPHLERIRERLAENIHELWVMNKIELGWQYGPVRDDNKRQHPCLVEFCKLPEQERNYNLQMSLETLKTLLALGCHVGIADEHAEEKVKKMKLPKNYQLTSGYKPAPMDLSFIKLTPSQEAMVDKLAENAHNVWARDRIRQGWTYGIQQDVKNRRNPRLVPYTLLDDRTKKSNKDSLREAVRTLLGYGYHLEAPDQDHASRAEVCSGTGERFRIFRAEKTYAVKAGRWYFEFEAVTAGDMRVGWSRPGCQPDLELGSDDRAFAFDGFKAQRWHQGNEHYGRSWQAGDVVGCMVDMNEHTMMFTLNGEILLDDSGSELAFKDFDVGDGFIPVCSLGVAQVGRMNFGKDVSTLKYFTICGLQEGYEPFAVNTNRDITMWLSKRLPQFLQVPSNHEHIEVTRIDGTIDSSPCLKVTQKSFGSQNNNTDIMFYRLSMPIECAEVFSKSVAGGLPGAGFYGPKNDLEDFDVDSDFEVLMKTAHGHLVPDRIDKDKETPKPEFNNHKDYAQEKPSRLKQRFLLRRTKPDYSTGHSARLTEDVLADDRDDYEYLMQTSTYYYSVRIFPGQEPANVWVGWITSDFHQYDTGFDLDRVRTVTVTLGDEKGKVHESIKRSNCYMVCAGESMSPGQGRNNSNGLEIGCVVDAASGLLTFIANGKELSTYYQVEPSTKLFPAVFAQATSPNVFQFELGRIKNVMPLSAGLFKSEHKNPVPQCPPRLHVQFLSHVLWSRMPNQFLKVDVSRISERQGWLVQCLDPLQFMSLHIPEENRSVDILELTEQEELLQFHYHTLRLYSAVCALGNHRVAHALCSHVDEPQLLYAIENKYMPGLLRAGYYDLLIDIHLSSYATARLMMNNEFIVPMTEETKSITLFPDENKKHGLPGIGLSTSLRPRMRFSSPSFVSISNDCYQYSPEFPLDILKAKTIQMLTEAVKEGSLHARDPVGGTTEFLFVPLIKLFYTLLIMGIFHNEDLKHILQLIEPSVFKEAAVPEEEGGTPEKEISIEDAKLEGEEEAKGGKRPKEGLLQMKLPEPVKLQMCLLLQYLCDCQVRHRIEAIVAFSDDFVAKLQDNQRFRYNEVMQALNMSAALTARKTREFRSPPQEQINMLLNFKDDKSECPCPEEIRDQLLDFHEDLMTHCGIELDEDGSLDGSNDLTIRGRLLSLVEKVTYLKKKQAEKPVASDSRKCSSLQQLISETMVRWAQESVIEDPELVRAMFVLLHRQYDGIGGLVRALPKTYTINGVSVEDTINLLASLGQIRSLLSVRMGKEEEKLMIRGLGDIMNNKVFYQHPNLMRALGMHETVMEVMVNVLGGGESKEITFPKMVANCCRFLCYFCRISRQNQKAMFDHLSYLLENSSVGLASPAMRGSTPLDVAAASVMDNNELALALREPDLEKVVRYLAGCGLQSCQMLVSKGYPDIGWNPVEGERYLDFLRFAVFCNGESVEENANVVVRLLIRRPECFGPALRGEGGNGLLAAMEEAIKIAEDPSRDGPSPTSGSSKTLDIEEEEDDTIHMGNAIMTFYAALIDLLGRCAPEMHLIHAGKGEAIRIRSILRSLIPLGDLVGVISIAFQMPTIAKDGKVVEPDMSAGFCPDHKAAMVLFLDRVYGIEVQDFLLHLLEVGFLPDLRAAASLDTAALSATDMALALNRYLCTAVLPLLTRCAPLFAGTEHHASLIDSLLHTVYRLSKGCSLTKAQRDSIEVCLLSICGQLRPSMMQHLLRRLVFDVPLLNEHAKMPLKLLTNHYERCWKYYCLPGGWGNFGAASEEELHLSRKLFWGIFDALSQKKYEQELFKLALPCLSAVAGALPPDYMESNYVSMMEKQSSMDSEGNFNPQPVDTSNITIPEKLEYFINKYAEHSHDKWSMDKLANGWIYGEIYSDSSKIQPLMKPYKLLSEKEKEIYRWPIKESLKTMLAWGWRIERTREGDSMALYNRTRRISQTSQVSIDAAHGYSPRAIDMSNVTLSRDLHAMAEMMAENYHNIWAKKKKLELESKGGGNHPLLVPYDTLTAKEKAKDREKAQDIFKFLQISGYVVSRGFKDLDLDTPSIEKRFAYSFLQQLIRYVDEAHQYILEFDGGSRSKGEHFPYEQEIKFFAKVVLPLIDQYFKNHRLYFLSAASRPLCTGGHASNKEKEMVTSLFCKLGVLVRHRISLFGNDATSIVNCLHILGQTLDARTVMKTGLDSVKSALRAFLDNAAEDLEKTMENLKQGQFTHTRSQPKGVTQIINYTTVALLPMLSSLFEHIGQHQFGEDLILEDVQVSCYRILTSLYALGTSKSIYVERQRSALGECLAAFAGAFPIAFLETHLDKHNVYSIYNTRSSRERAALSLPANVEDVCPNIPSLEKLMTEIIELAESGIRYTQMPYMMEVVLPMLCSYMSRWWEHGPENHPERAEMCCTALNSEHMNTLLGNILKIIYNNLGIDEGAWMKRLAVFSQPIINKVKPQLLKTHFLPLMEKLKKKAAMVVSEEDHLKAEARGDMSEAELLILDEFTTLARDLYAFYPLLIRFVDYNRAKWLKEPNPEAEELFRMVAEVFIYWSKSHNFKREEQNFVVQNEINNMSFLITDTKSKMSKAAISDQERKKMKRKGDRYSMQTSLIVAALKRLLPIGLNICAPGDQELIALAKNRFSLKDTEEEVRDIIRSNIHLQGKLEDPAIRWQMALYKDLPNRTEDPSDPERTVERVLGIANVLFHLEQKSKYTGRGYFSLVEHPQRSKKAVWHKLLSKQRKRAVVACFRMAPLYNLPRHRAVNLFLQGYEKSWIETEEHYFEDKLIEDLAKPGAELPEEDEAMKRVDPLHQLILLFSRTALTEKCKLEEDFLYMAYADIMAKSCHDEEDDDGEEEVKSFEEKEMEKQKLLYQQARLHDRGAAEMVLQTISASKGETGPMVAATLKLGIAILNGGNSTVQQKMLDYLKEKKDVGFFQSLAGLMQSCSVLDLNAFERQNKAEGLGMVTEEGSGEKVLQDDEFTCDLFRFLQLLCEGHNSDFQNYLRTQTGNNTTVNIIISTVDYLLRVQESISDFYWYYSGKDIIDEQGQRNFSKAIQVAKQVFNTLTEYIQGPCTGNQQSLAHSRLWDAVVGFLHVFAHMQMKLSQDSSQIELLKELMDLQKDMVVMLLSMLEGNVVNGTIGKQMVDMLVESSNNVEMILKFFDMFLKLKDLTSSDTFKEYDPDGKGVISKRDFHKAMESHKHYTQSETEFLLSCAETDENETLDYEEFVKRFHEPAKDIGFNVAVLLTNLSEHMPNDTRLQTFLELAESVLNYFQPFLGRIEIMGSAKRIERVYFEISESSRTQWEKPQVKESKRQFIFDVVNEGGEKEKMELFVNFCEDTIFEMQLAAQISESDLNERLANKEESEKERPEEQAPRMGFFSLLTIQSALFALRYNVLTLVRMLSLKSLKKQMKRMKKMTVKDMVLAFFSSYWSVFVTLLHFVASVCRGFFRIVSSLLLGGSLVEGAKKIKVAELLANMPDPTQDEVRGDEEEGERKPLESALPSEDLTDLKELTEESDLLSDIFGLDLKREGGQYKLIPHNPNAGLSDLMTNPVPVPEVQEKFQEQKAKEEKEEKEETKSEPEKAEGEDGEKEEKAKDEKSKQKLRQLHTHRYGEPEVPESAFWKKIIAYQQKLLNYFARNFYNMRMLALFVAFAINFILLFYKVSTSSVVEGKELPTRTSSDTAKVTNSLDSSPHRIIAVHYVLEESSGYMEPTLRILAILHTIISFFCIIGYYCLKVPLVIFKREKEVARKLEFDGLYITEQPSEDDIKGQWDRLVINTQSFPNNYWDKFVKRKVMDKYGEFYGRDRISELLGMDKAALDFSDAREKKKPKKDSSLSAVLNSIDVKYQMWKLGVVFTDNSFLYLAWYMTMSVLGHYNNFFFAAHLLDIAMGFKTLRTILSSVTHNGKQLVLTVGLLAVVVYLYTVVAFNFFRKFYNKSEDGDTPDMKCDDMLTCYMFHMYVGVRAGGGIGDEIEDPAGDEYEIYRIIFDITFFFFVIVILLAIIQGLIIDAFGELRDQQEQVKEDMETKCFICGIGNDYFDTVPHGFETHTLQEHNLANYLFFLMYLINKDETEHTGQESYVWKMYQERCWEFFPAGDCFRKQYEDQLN

SMILES: CCCCC[C@@H]1OC(=O)[C@@H](C)N(C)C(=O)[C@H](CCCCC)OC(=O)[C@@H](C)N(C)C(=O)[C@H](CCCCC)OC(=O)[C@@H](C)N(C)C1=O (single isomer, unassigned) [ent-B1]
- RyR2-mediated Ca2+ spark frequency ([1]; 25 μM, 10 minutes incubation, vs vehicle (DMSO)): significantly inhibited
- activity in the calcium spark assay (summary statement) ([1]; listed as 8): potent inhibitor
- activity in the calcium spark assay (summary statement) ([1]; listed as 18-membered COD): potent
- reduction in ventricular ectopy burden ([2]; 30 mg/kg i.p., Casq2-/- mice, isoproterenol challenge): 70%
- incidence of VT ([2]; 3 and 30 mg/kg i.p. vs vehicle): dose-dependent reduction
- number of total ectopic beats ([2]; 3 and 30 mg/kg i.p. vs vehicle): dose-dependent reduction
- suppression of ventricular tachycardia ([2]; only at the higher dose tested, 30 mg/kg): statistically significant suppression
- arrhythmia risk scores ([2]; ordinal scale 0-4, vs vehicle): lower
